Data published in patent US4464385A, “Treatment of diabetic complications with hydantoins” (Alcon Laboratories, Inc., priority 1982, dated 1984).

System: cataracts in rats
Experiment: Prevention or retardation of cataracts in galactose-fed rats
Assay type: in vivo, rat
Conditions: 30% galactose diet, A,C,E 0.0025%, B,D 0.01%
Procedure: The compounds to be tested were:
Test compound/diet mixtures were formulated as follows: […]
Similarly, the 0.01% level was designed to provide a drug concentration of 20 mg per kilogram per day.
All animals were fed the Purina Laboratory Chow and water, ad libitum for a two day acclimatization period. The indicated test compound/diet mixture then was introduced to all animals on Study Day 1 and the animals were maintained on this diet throughout thirty days of the study.
Sufficient amounts of test compound/diet mixture were maintained in the food hoppers to allow the animals to eat ad libitum. All aliquots of test compound/diet mixture added to the food hoopers were weighed and the weights, as well as day of addition, recorded.
Twelve animals were assigned to each treatment with each compound at the indicated percentage by total weight of feed. All eyes were examined with a handheld ophthalmoscope and/or penlight.

Compound: CSc1ccc2c(c1)C1(CCO2)NC(=O)NC1=O (centres unmarked) [B]
- Number of Eyes Observed, + (vacuole) (Study Day 14): 18 eyes
- Number of Eyes Observed, - (Normal) (Study Day 14): 3 eyes
- Number of Eyes Observed, N (nuclear cataract) (Study Day 14): 0 eyes
- Number of Eyes Observed, S (snowflake) (Study Day 14): 0 eyes
- Number of Eyes Observed, ± (Study Day 14): 3 eyes
- % of Total Eyes, + (vacuole) (Study Day 16): 83.3%
- % of Total Eyes, - (Normal) (Study Day 16): 0%
- % of Total Eyes, N (nuclear cataract) (Study Day 16): 0%
- % of Total Eyes, S (snowflake) (Study Day 16): 0%
- Number of Eyes Observed, + (vacuole) (Study Day 16): 20 eyes
- Number of Eyes Observed, - (Normal) (Study Day 16): 0 eyes
- Number of Eyes Observed, N (nuclear cataract) (Study Day 16): 0 eyes
- Number of Eyes Observed, S (snowflake) (Study Day 16): 0 eyes
- Number of Eyes Observed, ± (Study Day 16): 4 eyes
- % of Total Eyes, + (vacuole) (Study Day 18): 95.8%
- % of Total Eyes, - (Normal) (Study Day 18): 0%
- % of Total Eyes, N (nuclear cataract) (Study Day 18): 0%
- % of Total Eyes, S (snowflake) (Study Day 18): 0%
- Number of Eyes Observed, + (vacuole) (Study Day 18): 23 eyes
- Number of Eyes Observed, - (Normal) (Study Day 18): 0 eyes
- Number of Eyes Observed, N (nuclear cataract) (Study Day 18): 0 eyes
- Number of Eyes Observed, S (snowflake) (Study Day 18): 0 eyes
- Number of Eyes Observed, ± (Study Day 18): 1 eyes
- % of Total Eyes, + (vacuole) (Study Day 20): 91.7%
- % of Total Eyes, - (Normal) (Study Day 20): 0%
- % of Total Eyes, N (nuclear cataract) (Study Day 20): 0%
- % of Total Eyes, S (snowflake) (Study Day 20): 4.2%
- Number of Eyes Observed, + (vacuole) (Study Day 20): 22 eyes
- Number of Eyes Observed, - (Normal) (Study Day 20): 0 eyes
- Number of Eyes Observed, N (nuclear cataract) (Study Day 20): 0 eyes
- Number of Eyes Observed, S (snowflake) (Study Day 20): 1 eyes
- Number of Eyes Observed, ± (Study Day 20): 1 eyes
- % of Total Eyes, + (vacuole) (Study Day 22): 70.8%
- % of Total Eyes, - (Normal) (Study Day 22): 0%
- % of Total Eyes, N (nuclear cataract) (Study Day 22): 0%
- % of Total Eyes, S (snowflake) (Study Day 22): 29.2%
- Number of Eyes Observed, + (vacuole) (Study Day 22): 17 eyes
- Number of Eyes Observed, - (Normal) (Study Day 22): 0 eyes
- Number of Eyes Observed, N (nuclear cataract) (Study Day 22): 0 eyes
- Number of Eyes Observed, S (snowflake) (Study Day 22): 7 eyes
- Number of Eyes Observed, ± (Study Day 22): 0 eyes
- % of Total Eyes, + (vacuole) (Study Day 24): 45.8%
- % of Total Eyes, - (Normal) (Study Day 24): 0%
- % of Total Eyes, N (nuclear cataract) (Study Day 24): 0%
- % of Total Eyes, S (snowflake) (Study Day 24): 54.2%
- Number of Eyes Observed, + (vacuole) (Study Day 24): 11 eyes
- Number of Eyes Observed, - (Normal) (Study Day 24): 0 eyes
- Number of Eyes Observed, N (nuclear cataract) (Study Day 24): 0 eyes
- Number of Eyes Observed, S (snowflake) (Study Day 24): 13 eyes
- Number of Eyes Observed, ± (Study Day 24): 0 eyes
- % of Total Eyes, + (vacuole) (Study Day 26): 20.8%
- % of Total Eyes, - (Normal) (Study Day 26): 0%
- % of Total Eyes, N (nuclear cataract) (Study Day 26): 0%
- % of Total Eyes, S (snowflake) (Study Day 26): 79.2%
- Number of Eyes Observed, + (vacuole) (Study Day 26): 5 eyes
- Number of Eyes Observed, - (Normal) (Study Day 26): 0 eyes
- Number of Eyes Observed, N (nuclear cataract) (Study Day 26): 0 eyes
- Number of Eyes Observed, S (snowflake) (Study Day 26): 19 eyes
- Number of Eyes Observed, ± (Study Day 26): 0 eyes
- % of Total Eyes, + (vacuole) (Study Day 28): 8.3%
- % of Total Eyes, - (Normal) (Study Day 28): 0%
- % of Total Eyes, N (nuclear cataract) (Study Day 28): 0%
- % of Total Eyes, S (snowflake) (Study Day 28): 91.7%
- Number of Eyes Observed, + (vacuole) (Study Day 28): 2 eyes
- Number of Eyes Observed, - (Normal) (Study Day 28): 0 eyes
- Number of Eyes Observed, N (nuclear cataract) (Study Day 28): 0 eyes
- Number of Eyes Observed, S (snowflake) (Study Day 28): 22 eyes
- Number of Eyes Observed, ± (Study Day 28): 0 eyes
- % of Total Eyes, + (vacuole) (Study Day 30): 4.2%
- % of Total Eyes, - (Normal) (Study Day 30): 0%
- % of Total Eyes, N (nuclear cataract) (Study Day 30): 0%
- % of Total Eyes, S (snowflake) (Study Day 30): 95.8%
- Number of Eyes Observed, + (vacuole) (Study Day 30): 1 eyes
- Number of Eyes Observed, - (Normal) (Study Day 30): 0 eyes
- Number of Eyes Observed, N (nuclear cataract) (Study Day 30): 0 eyes
- Number of Eyes Observed, S (snowflake) (Study Day 30): 23 eyes
- Number of Eyes Observed, ± (Study Day 30): 0 eyes
